Data from patent publication US5756517A, “Use of bisquinoline compounds in the treatment of cerebral disorders” (Bayer Aktiengesellschaft, priority 1996, dated 1998).

Tests used:
[1] = molecular target: apamin binding sites / apamin receptors (apamin-sensitive potassium channels), calves' cerebral membrane; test: Binding of 125I-apamin to calves' cerebral membrane; settings: displacement of 125I-apamin (30 pM), calf hippocampus membranes, 60 min on ice
Experimental: 1) Binding of ^125 I-apamin to calves' cerebral membrane
Calf brains were obtained from the local abattoir. The hippocampus was prepared on ice and a membrane suspension was made up by homogenization twice in buffer (100 mM Tris-HCl, KCl 5 mM, pH 7.4) and centrifugation at 43,000×g. In a total volume of 500 μl, the incubation mixture contained 200 μg of membrane protein, 30 pM ^125 I-apamin and test substances in the concentration range 1×10^-9 to 1×10^-4 M. The non-specific binding of ^125 I-apamin was determined in the presence of 1×10^-7 M unlabeled apamin.
After preincubation for 30 min at room temperature (test substances and membrane homogenate), the samples were placed on ice for 10 min before the radioligand was added. The main incubation time was 60 min on ice. When the reaction time had elapsed, an excess of ice-cooled incubation buffer was added to each sample and the mixture was filtered with suction through cellulose acetate/nitrate membrane filters. The amount of bound ^125 I-apamin was measured with a gamma counter.

[2] = tested on: apamine-sensitive potassium channels in PC12 cells; test: Non-radioactive Rb+ efflux assay for the identification of potassium channel modulators (PC12 cells); assay type: cell-based; settings: Rattus norvegicus, PC-12, 10 min, 10 min stimulation with 50 mM KCl, read-out: % inhibition of the Rb efflux at a test concentration of 10 μM
Experimental: 2) Non-radioactive Rb^+ efflux assay for the identification of potassium channel modulators
The cellular potassium in PC12 cells is exchanged with rubidium, which is not present in the cells. This exchange is performed by incubating the cells over a period of 4 h in a physiological buffer containing 5.4 mM RbCl without KCl. This rubidium subsequently serves as a tracer for potassium. The cells laden with Rb^+ in this way are washed three times and then stimulated by depolarization with 50 mM KCl to open potassium channels (10 min), causing Rb^+ to flow out of the cells into the supernatant according to the concentration gradient.
The rubidium contents in the cell supernatant and in the residual cells after they have been lyzed with 1% Triton X-100 are then. determined by means of atomic absorption spectroscopy. The relative proportion of rubidium in the cell supernatant (=Rb^+ efflux) is used as a measure of the potassium channel activity.
The effect of substances on the channel activity is measured by co-incubating the test substance over the ten-minute stimulation period and determining its effect on the Rb^+ efflux in the manner described above.

Row | SMILES | Ki [1] [µM] | inhibition at 10 µM [2] [%]
1 | Cc1cc(NCCC(O)CCNc2cc(C)nc3ccccc23)c2ccccc2n1 [Example 14] | 0.19 | 
2 | Cc1cc(NCC(O)CNc2cc(C)nc3ccccc23)c2ccccc2n1 [Example 15] |  | 73
